Laboratory results taken from patent US6653258B1 (priority 1987, dated 2003).
Like-named read-outs stand apart in the source and are kept apart here. Marks after values point to notes of the source that are not given here.

Assays:
Erysiphe graminis = test: Foliar fungal disease test on Erysiphe graminis, plants inoculated 24 hours before treatment (Table V); assay type: in vivo; parameters: key: 4: no disease; 3: trace −5% of disease on untreated plants; 6-25% of disease on untreated plants; 1: 26-59% of disease on untreated plants; 60-100% of disease on untreated plants
[1] = test system: foliar fungal diseases of plants; assay type: in vivo; parameters: key to disease control grading, […] (VINE): 4: no disease; 3: trace −5% of disease on untreated plants; key to disease control grading, PUCCINIA RECONDITA (WHEAT) / disease control grading, VENTURIA INAEQUALIS (APPLE) / disease control grading, CERCOSPORA ARACHIDICOLA (PEANUT) / disease control grading, PH[…] (TOMATO) / disease control grading, P[…] (RICE): 4: no disease; 3: trace −5% of disease on untreated plants; 6-25% of disease on untreated plants; 1: 26-59% of disease on untreated plants; 60-100% of disease on untreated plants; details: for disease control grading, CERCOSPORA ARACHIDICOLA (PEANUT): Cercospora arachidicola on peanut; for disease control grading, P[…] (RICE): P[…] on rice; for disease control grading, PH[…] (TOMATO): Ph[…] on tomato; for disease control grading, PUCCINIA RECONDITA (WHEAT): Puccinia recondita on wheat; for disease control grading, VENTURIA INAEQUALIS (APPLE): Venturia inaequalis on apple; for disease control grading, […] (VINE): […] on vine
[2] = plants inoculated 24 hours before treatment
[3] = applied to soil (roots) and foliage one or two days before inoculation

SMILES | disease control grading, ERYSIPHE GRAMINIS (BARLEY) (Erysiphe graminis; [2]) | disease control grading, CERCOSPORA ARACHIDICOLA (PEANUT) [1, 3] | disease control grading, P[…] (RICE) [1, 3] | disease control grading, PH[…] (TOMATO) [1, 3] | disease control grading, PUCCINIA RECONDITA (WHEAT) [1, 3] | disease control grading, VENTURIA INAEQUALIS (APPLE) [1, 3] | disease control grading, […] (VINE) [1, 3] | disease control grading, ERYSIPHE GRAMINIS (BARLEY) (Erysiphe graminis; 25 ppm foliar spray only) | disease control grading, CERCOSPORA ARACHIDICOLA (PEANUT) ([1]; 25 ppm foliar spray only) | disease control grading, P[…] (RICE) ([1]; 25 ppm foliar spray only) | disease control grading, PH[…] (TOMATO) ([1]; 25 ppm foliar spray only) | disease control grading, PUCCINIA RECONDITA (WHEAT) ([1]; 25 ppm foliar spray only) | disease control grading, VENTURIA INAEQUALIS (APPLE) ([1]; 25 ppm foliar spray only) | disease control grading, […] (VINE) ([1]; 25 ppm foliar spray only)
CO/C=C(/C(=O)OC)c1ccccc1COc1cccc(O)c1 [171 (Table I)] | 1 (26-59% of disease on untreated plants) | 3 (trace −5% of disease on untreated plants) | 0 (60-100% of disease on untreated plants) | 3 (trace −5% of disease on untreated plants) | 3 (trace −5% of disease on untreated plants) | 4 | 4 | – | – | – | – | – | – | –
CO/C=C(/C(=O)OC)c1ccccc1COc1cccc(C(F)(F)F)c1 [168 (Table I)] | 4 | 3 (trace −5% of disease on untreated plants) | 4 | 4 | 4 | 4 | 4 | – | – | – | – | – | – | –
CO/C=C(/C(=O)OC)c1ccccc1CSc1ccccc1 [1 (Table II)] | 2 (6-25% of disease on untreated plants) | 0 (60-100% of disease on untreated plants) | 3 (trace −5% of disease on untreated plants) | 4 | 4 | 4 | 4 | – | – | – | – | – | – | –
CCN(CC)c1cccc(OCc2ccccc2/C(=C\OC)C(=O)OC)c1 [169 (Table I)] | 1 (26-59% of disease on untreated plants) | 4 | 0 (60-100% of disease on untreated plants) | 4 | 3 (trace −5% of disease on untreated plants) | 4 | 4 | – | – | – | – | – | – | –
CO/C=C(/C(=O)OC)c1ccccc1COc1ccc(F)cc1 [156 (Table I)] | 4 | 4 | 0 (60-100% of disease on untreated plants) | 4 | 4 | 4 | 4 | – | – | – | – | – | – | –
CO/C=C(/C(=O)OC)c1ccccc1COc1cccc(Br)c1 [166 (Table I)] | 4 | 4 | 4 | 4 | 4 | 4 | 4 | – | – | – | – | – | – | –
CO/C=C(/C(=O)OC)c1ccccc1COc1ccccc1Br [24 (Table I)] | 4 | 4 | 4 | 4 | 4 | 4 | 4 | – | – | – | – | – | – | –
CO/C=C(/C(=O)OC)c1ccccc1COc1cc(Cl)cc(OC)c1 [167 (Table I)] | 4 | 3 (trace −5% of disease on untreated plants) | 4 | 4 | 4 | 4 | 4 | – | – | – | – | – | – | –
CCCN(Cc1ccccc1/C(=C\OC)C(=O)OC)c1ccccc1 [4 (Table III)] | – | – | – | – | – | – | – | 0* (60-100% of disease on untreated plants) | 0* (60-100% of disease on untreated plants) | 0* (60-100% of disease on untreated plants) | 0* (60-100% of disease on untreated plants) | 0* (60-100% of disease on untreated plants) | 3* (trace −5% of disease on untreated plants) | 1* (26-59% of disease on untreated plants)
CO/C=C(/C(=O)OC)c1ccccc1COc1ccccn1 [67 (Table I)] | 4 | 4 | 4 | 4 | 4 | 4 | 4 | – | – | – | – | – | – | –
CO/C=C(/C(=O)OC)c1ccccc1COc1cccc(N)c1 [34 (Table I)] | 0 (60-100% of disease on untreated plants) | 0 (60-100% of disease on untreated plants) | 0 (60-100% of disease on untreated plants) | 4 | 3 (trace −5% of disease on untreated plants) | 3 (trace −5% of disease on untreated plants) | 4 | – | – | – | – | – | – | –
CO/C=C(/C(=O)OC)c1ccccc1COc1cccc(Cl)c1Cl [163 (Table I)] | 4 | 4 | 2 (6-25% of disease on untreated plants) | 4 | 4 | 4 | 4 | – | – | – | – | – | – | –
CO/C=C(/C(=O)OC)c1ccccc1COc1cc(Cl)cc(Cl)c1 [162 (Table I)] | 4 | 4 | 2 (6-25% of disease on untreated plants) | 3 (trace −5% of disease on untreated plants) | 4 | 4 | 4 | – | – | – | – | – | – | –
CO/C=C(/C(=O)OC)c1ccccc1COc1cccc(OCc2ccccc2)c1 [184 (Table I)] | 4 | 4 | 3 (trace −5% of disease on untreated plants) | 4 | 4 | 4 | 4 | – | – | – | – | – | – | –
CO/C=C(/C(=O)OC)c1ccccc1COc1cccc(F)c1 [155 (Table I)] | 4 | 4 | 4 | 4 | 4 | 4 | 4 | – | – | – | – | – | – | –
CO/C=C(/C(=O)OC)c1ccccc1COc1cccc(/C=N/c2ccccc2)c1 [179 (Table I)] | 0 (60-100% of disease on untreated plants) | 0 (60-100% of disease on untreated plants) | 2 (6-25% of disease on untreated plants) | 4 | 3 (trace −5% of disease on untreated plants) | 0 (60-100% of disease on untreated plants) | 4 | – | – | – | – | – | – | –
